Laboratory results reported in US9120798B2, “Amino-heteroaryl 7-hydroxy-spiropiperidine indolinyl antagonists of P2Y1 receptor” (priority 2012, dated 2015).
Like-named read-outs stand apart in the source and are kept apart here.

Key:
[1] = molecular target: cloned human P2Y1 receptors (Homo sapiens (Human), UniProt P47900); assay: Binding Assay B: Scintillation Proximity Assay (SPA) for P2Y1 binding
Procedure: Binding Assay B—Scintillation Proximity Assay (SPA) for P2Y1 Binding
A SPA membrane binding assay was used to identify inhibitors of [^33P] […] Binding reactions were performed in 384-well OptiPlates (PerkinElmer Life Sciences, Cat #6007299) in a volume of 50 μL containing ˜15 fmol of P2Y1 receptor (1.7 μg of total protein), 0.3 nM [^33P] […] Reactions were allowed to proceed to completion at room temperature for 1 hour followed by centrifugation of the plate for 5 min. About 40 μL of the aqueous solution was aspirated. Plates were sealed and the [^33P]

[2] = test system: human platelet rich plasma (PRP); assay: ADP induced platelet aggregation assay; assay type: cell-based; details: 5 min, read-out: PA IC50 (μM) @ 10 μM ADP
Procedure: ADP Induced Platelet Aggregation Assay
The ability of P2Y1 antagonists covered in the present invention to inhibit platelet aggregation induced by 10 μM ADP was tested using human platelet rich plasma (PRP) as described in Platelet Protocols: Research and Clinical Laboratory Procedures (White, M. M. et al., Academic Press (1999)). Human blood was collected in 30 μM (final concentration in blood) argatroban (GSK) as the anticoagulant at a ratio of 1 ml per 9 ml of blood. The PRP was isolated by centrifugation at 170 g for 12 minutes. The platelet poor plasma (PPP) was used as the blank for optical aggregometry. Compounds of the present invention in DMSO solution was preincubated with 250 μl PRP at 37° C. for 1 minute with stirring speed of 1000 rpm. Aggregation was initiated by addition of 2.5 μl of 1 mM ADP (Chrono-log, Havertown, Pa.) for a final ADP concentration of 10 uM. Platelet aggregation was monitored using Optical Aggregometer (Chrono-log, Havertown, Pa.) and the area under the curve (AUC) at 5 minute was measured. IC50 was calculated using vehicle control as 0% inhibition.
The platelet aggregation assay measures the in vitro antiplatelet activity of a compound in platelet rich plasma. The assay is sensitive to plasma protein binding, and is believed to be a better predictor of actual in vivo activity.

[3] = SPA, 0.3 nM [33P] 2MeS-ADP, Cheng-Prusoff, read-out: P2Y1 Ki (nM) using binding assay B

Sequence of cloned human P2Y1 receptors (P47900 whole entry): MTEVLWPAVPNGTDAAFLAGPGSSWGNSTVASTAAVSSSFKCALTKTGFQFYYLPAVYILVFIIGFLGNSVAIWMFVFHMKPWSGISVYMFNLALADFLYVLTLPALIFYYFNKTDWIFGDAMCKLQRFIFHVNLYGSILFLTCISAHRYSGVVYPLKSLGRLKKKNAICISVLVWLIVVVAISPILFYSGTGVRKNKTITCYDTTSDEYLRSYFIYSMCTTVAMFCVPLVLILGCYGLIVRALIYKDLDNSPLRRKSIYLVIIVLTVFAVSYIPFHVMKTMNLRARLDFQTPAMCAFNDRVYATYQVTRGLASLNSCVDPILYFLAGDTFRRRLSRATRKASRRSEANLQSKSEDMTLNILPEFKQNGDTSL

## CC(C)(C)CN1CCC2(CC1)CN(c1ccccc1Nc1nnc(-c3ccc(Cl)cc3)s1)c1c(O)ccc(Cl)c12 [Example 21, 4-chloro-1-(2-((5-(4-chloro-phenyl)-1,3,4-thiadiazol-2-yl)amino)phenyl)-1′-neopentylspiro[indoline-3,4′-piperidin]-7-ol]
[1]; [3]
  Ki: 13 nM
[2]
  IC50: 1.3 µM

## CC(C)(C)CN1CCC2(CC1)CN(c1ccccc1Nc1nnc(-c3cc(Cl)cc(Cl)c3)s1)c1c(O)ccc(Cl)c12 [Example 23, 4-chloro-1-(2-((5-(3,5-dichloro-phenyl)-1,3,4-thiadiazol-2-yl)amino)phenyl)-1′-neopentylspiro[indoline-3,4′-piperidin]-7-ol]
[1]
  Ki: 19 nM
[2]
  IC50: 3.4 µM

## CC(C)(C)CN1CCC2(CC1)CN(c1ccccc1Nc1nnc(-c3ccc(OC(F)(F)F)cc3)s1)c1c(O)c(F)cc(Cl)c12 [Example 32, 4-chloro-6-fluoro-1′-neopentyl-1-(2-((5-(4-(trifluoromethoxy)-phenyl)-1,3,4-thiadiazol-2-yl)amino)phenyl)spiro[indoline-3,4′-piperidin]-7-ol]
[1]
  Ki: 69 nM
[2]
  IC50: 15.6 µM

## CC(C)(C)CN1CCC2(CC1)CN(c1ccccc1Nc1nnc(-c3ccc(OC(F)(F)F)cc3)s1)c1c(O)ccc(F)c12 [Example 30, 4-fluoro-1′-neopentyl-1-(2-((5-(4-(trifluoromethoxy)-phenyl)-1,3,4-thiadiazol-2-yl)amino)phenyl)spiro[indoline-3,4′-piperidin]-7-ol]
[1]
  Ki: 5 nM
[2]
  IC50: 2 µM

## Cc1cccc(-c2nnc(Nc3ccccc3N3CC4(CCN(CC(C)(C)C)CC4)c4c(Cl)ccc(O)c43)s2)c1 [Example 22, 4-chloro-1′-neopentyl-1-(2-((5-(m-tolyl)-1,3,4-thiadiazol-2-yl)amino)phenyl)spiro[indoline-3,4′-piperidin]-7-ol]
[1]
  Ki: 22 nM
[2]
  IC50: 4 µM

## CC(C)(C)CN1CCC2(CC1)CN(c1ccccc1Nc1nnc(-c3ccc(C(C)(C)C)cc3)s1)c1c(O)ccc(C(F)(F)F)c12 [Example 2, 1-(2-(5-(4-tert-Butylphenyl)-1,3,4-thiadiazol-2-ylamino)phenyl)-1′-neopentyl-4-(trifluoromethyl)spiro[indoline-3,4′-piperidin]-7-ol]
[1]; [3]
  Ki: 26 nM
[2]
  IC50: 0.9 µM

## CC(C)(C)CN1CCC2(CC1)CN(c1ccccc1Nc1nnc(-c3ccc(Cl)cc3)s1)c1c(O)ccc(F)c12 [Example 31, 1-(2-((5-(4-chlorophenyl)-1,3,4-thiadiazol-2-yl)amino)phenyl)-4-fluoro-1′-neopentylspiro-[indoline-3,4′-piperidin]-7-ol]
[1]
  Ki: 6 nM
[2]
  IC50: 4.2 µM

## COC(=O)c1ccc(O)c2c1C1(CCN(CC(C)(C)C)CC1)CN2c1ccccc1Nc1nnc(-c2ccc(C(F)(F)F)cc2)s1 [Example 43, Methyl 7-hydroxy-1′-neopentyl-1-(2-(5-(4-(trifluoromethyl)phenyl)-1,3,4-thiadiazol-2-ylamino)phenyl)spiro[indoline-3,4′-piperidine]-4-carboxylate]
[1]
  Ki: 8 nM
[2]
  IC50: 3.1 µM

## CC(C)(C)CN1CCC2(CC1)CN(c1ccccc1Nc1nnc(-c3ccc(C(F)(F)F)cn3)s1)c1c(O)ccc(Cl)c12 [Example 8, 4-Chloro-1′-neopentyl-1-(2-(5-(5-(trifluoromethyl)pyridin-2-yl)-1,3,4-thiadiazol-2-ylamino)phenyl)spiro[indoline-3,4′-piperidin]-7-ol]
[1]
  Ki: 7 nM
[2]
  IC50: 1.5 µM

## CC(C)(C)CN1CCC2(CC1)CN(c1ccccc1Nc1nnc(-c3cccc(C(F)(F)F)c3)s1)c1c(O)ccc(Cl)c12 [Example 27, 4-chloro-1′-neopentyl-1-(2-((5-(3-(trifluoromethyl)phenyl)-1,3,4-thiadiazol-2-yl)amino)-phenyl)spiro[indoline-3,4′-piperidin]-7-ol]
[1]
  Ki: 24 nM
[2]
  IC50: 3.2 µM

## CC(C)(C)CN1CCC2(CC1)CN(c1ccccc1Nc1nnc(-c3ccc(F)cc3)s1)c1c(O)ccc(C(F)(F)F)c12 [Example 4, 1-(2-(5-(4-Fluorophenyl)-1,3,4-thiadiazol-2-ylamino)phenyl)-1′-neopentyl-4-(trifluoromethyl)spiro[indoline-3,4′-piperidin]-7-ol]
[1]
  Ki: 15 nM
[2]
  IC50: 2.2 µM

## COC(=O)c1ccc(O)c2c1C1(CCN(CC(C)(C)C)CC1)CN2c1ccccc1Nc1nnc(-c2ccc(C(C)(C)C)cc2)s1 [Example 44, Methyl 1-(2-(5-(4-tert-butylphenyl)-1,3,4-thiadiazol-2-ylamino)phenyl)-7-hydroxy-1′-neopentylspiro[indoline-3,4′-piperidine]-4-carboxylate]
[1]; [3]
  Ki: 8 nM
[2]
  IC50: 0.8 µM

## CC(C)(C)CN1CCC2(CC1)CN(c1ccccc1Nc1ncc(-c3ccccc3)s1)c1c(O)ccc(Cl)c12 [Example 11, 4-Chloro-1′-neopentyl-1-(2-(5-phenylthiazol-2-ylamino)phenyl)spiro[indoline-3,4′-piperidin]-7-ol]
[1]
  Ki: 16 nM
[2]
  IC50: 3.7 µM

## CC(C)(C)CN1CCC2(CC1)CN(c1ccccc1Nc1nc(-c3ccccc3)ns1)c1c(O)ccc(Cl)c12 [Example 35, 4-Chloro-1′-neopentyl-1-(2-(3-phenyl-1,2,4-thiadiazol-5-ylamino)phenyl)spiro[indoline-3,4′-piperidin]-7-ol]
[1]; [3]
  Ki: 6 nM
[2]
  IC50: 5.4 µM

## COC(=O)c1nnc(Nc2ccccc2N2CC3(CCN(CC(C)(C)C)CC3)c3c(Cl)ccc(O)c32)s1 [Example 17, methyl 5-((2-(4-chloro-7-hydroxy-1′-neopentylspiro[indoline-3,4′-piperidin]-1-yl)phenyl)-amino)-1,3,4-thiadiazole-2-carboxylate]
[1]
  Ki: 48 nM
[2]
  IC50: 7.2 µM

## CC(C)(C)CN1CCC2(CC1)CN(c1ccccc1Nc1nnc(-c3ccc(OC(F)(F)F)cc3)s1)c1c(O)cc(F)c(Cl)c12 [Example 33, 4-chloro-5-fluoro-1′-neopentyl-1-(2-((5-(4-(trifluoromethoxy)-phenyl)-1,3,4-thiadiazol-2-yl)amino)phenyl)spiro[indoline-3,4′-piperidin]-7-ol]
[1]
  Ki: 23 nM
[2]
  IC50: 9.2 µM

## CC(C)(C)CN1CCC2(CC1)CN(c1ccccc1Nc1nnc(-c3cccc(F)c3)s1)c1c(O)ccc(Cl)c12 [Example 29, 4-chloro-1-(2-((5-(3-fluoro-phenyl)-1,3,4-thiadiazol-2-yl)amino)phenyl)-1′-neopentylspiro[indoline-3,4′-piperidin]-7-ol]
[1]
  Ki: 23 nM
[2]
  IC50: 2.4 µM

## CC(C)(C)CN1CCC2(CC1)CN(c1ccccc1Nc1nnc(-c3cccc(F)c3)s1)c1c(O)ccc(C(F)(F)F)c12 [Example 5, 1-(2-(5-(3-Fluorophenyl)-1,3,4-thiadiazol-2-ylamino)phenyl)-1′-neopentyl-4-(trifluoromethyl)spiro[indoline-3,4′-piperidin]-7-ol]
[1]
  Ki: 12 nM
[2]
  IC50: 1.6 µM

## CC(C)(C)CN1CCC2(CC1)CN(c1ccccc1Nc1nnc(-c3cc(F)ccc3Cl)s1)c1c(O)ccc(Cl)c12 [Example 24, 4-chloro-1-(2-((5-(2-chloro-5-fluorophenyl)-1,3,4-thiadiazol-2-yl)amino)phenyl)-1′-neopentylspiro[indoline-3,4′-piperidin]-7-ol]
[1]
  Ki: 28 nM
[2]
  IC50: 4.5 µM

## CC(C)(C)CN1CCC2(CC1)CN(c1ccccc1Nc1cc(-c3ccc(C(F)(F)F)cc3)on1)c1c(O)ccc(Cl)c12 [Example 37, 4-Chloro-1′-neopentyl-1-(2-(5-(4-(trifluoromethyl)phenyl)isoxazol-3-ylamino)phenyl)spiro[indoline-3,4′-piperidin]-7-ol]
[1]
  Ki: 60 nM
[2]
  IC50: 9.9 µM

## CC(C)(C)CN1CCC2(CC1)CN(c1ccccc1Nc1nnc(-c3ccccc3Cl)s1)c1c(O)ccc(Cl)c12 [Example 19, 4-chloro-1-(2-((5-(2-chloro-phenyl)-1,3,4-thiadiazol-2-yl)amino)phenyl)-1′-neopentylspiro[indoline-3,4′-piperidin]-7-ol]
[1]; [3]
  Ki: 28 nM
[2]
  IC50: 10.7 µM

## Cn1nc(C(C)(C)C)cc1-c1nnc(Nc2ccccc2N2CC3(CCN(CC(C)(C)C)CC3)c3c(Cl)ccc(O)c32)s1 [Example 18, 1-(2-((5-(3-(tert-butyl)-1-methyl-1H-pyrazol-5-yl)-1,3,4-thiadiazol-2-yl)amino)phenyl)-4-chloro-1′-neopentylspiro[indoline-3,4′-piperidin]-7-ol]
[1]
  Ki: 33 nM
[2]
  IC50: 1.8 µM

## CC(C)(C)CN1CCC2(CC1)CN(c1ccccc1Nc1cc(-c3ccccc3)on1)c1c(O)ccc(Cl)c12 [Example 38, 4-Chloro-1′-neopentyl-1-(2-(5-phenylisoxazol-3-ylamino)phenyl)spiro[indoline-3,4′-piperidin]-7-ol]
[1]; [3]
  Ki: 66 nM
[2]
  IC50: 9 µM
